# Measurements as given in the NIST ThermoML archive (doi:10.1021/je034228o).
# Numbers after ± are expanded uncertainties.
# Conditions: Crystal; DTA
row,Normal melting temperature,SMILES
1,76.1 ± 0.5 °C,CC(C)Cc1ccc(C(C)C(=O)O)cc1 (configuration not stated) [ibuprofen]
2,51.1 ± 0.5 °C,CC(C)Cc1ccc([C@H](C)C(=O)O)cc1 [(S)-2-(4-isobutylphenyl)propanoic acid]
